Data: ChEMBL document CHEMBL2073807, “Effects of glibenclamide on glycylsarcosine transport by the rat peptide transporters PEPT1 and PEPT2” (Br J Pharmacol, 1999)

What was measured:
[1] = biological target: T1, Solute carrier family 15 member 2 (Rattus norvegicus, UniProt Q63424); assay: TP_TRANSPORTER: inhibition of Gly-Sar uptake in PEPT2-expressing LLC-PK1 cells; assay type: functional, cell-based
T1 sequence (Q63424 whole entry): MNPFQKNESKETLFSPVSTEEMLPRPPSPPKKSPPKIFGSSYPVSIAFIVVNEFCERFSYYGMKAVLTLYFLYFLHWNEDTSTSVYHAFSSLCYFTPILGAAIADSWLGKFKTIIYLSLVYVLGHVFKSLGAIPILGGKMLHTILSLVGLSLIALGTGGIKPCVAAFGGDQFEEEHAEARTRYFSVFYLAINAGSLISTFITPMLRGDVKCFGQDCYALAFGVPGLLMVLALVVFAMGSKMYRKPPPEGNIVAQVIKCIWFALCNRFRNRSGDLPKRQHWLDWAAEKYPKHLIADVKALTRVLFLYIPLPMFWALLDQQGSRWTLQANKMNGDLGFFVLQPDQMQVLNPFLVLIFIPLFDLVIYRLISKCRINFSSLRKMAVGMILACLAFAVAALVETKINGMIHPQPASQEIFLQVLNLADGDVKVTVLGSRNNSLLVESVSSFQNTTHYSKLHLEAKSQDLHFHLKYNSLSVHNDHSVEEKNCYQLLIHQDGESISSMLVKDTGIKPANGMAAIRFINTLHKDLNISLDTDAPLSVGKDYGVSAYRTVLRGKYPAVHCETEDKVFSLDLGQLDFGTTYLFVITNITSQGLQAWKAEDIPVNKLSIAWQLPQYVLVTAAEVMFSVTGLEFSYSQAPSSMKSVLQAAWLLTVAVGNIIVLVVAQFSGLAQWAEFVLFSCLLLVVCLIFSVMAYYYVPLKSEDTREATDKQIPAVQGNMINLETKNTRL

[2] = biological target: T2, Solute carrier family 15 member 1 (Rattus norvegicus, UniProt P51574); assay: TP_TRANSPORTER: inhibition of Gly-Sar uptake in PEPT1-expressing LLC-PK1 cells; assay type: functional, cell-based
T2 sequence (P51574 whole entry): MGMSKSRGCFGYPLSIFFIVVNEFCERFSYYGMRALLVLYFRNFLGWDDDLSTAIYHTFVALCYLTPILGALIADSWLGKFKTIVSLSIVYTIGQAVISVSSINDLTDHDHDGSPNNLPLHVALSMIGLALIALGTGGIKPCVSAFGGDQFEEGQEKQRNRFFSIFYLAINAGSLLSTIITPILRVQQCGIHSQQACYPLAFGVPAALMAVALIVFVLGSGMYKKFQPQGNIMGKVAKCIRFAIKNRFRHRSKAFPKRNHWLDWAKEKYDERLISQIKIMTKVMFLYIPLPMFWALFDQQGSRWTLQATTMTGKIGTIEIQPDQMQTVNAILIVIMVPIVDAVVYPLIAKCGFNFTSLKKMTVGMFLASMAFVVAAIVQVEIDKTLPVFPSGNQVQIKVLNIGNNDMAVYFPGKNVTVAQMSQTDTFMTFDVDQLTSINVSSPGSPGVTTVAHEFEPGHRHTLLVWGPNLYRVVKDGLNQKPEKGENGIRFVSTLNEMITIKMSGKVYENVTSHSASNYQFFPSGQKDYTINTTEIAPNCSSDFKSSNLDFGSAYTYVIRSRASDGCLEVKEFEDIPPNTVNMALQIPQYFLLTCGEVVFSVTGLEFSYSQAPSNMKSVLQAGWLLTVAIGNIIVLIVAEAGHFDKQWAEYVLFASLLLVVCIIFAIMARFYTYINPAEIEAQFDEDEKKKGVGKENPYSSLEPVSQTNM

COc1ccc(Cl)cc1C(=O)NCCc1ccc(S(=O)(=O)NC(=O)NC2CCCCC2)cc1 [GLYBURIDE]
Ki [1]: 7.8 µM
Ki [2]: 25 µM
